In patent US5354748A, “Oral antibacterial compositions and method for the improvement of gastrointestinal absorption of penem or carbapenem antibiotics” (Suntory Limited, priority 1991, dated 1994):

Assays:
[1] = tested on: epithelial cells isolated from the small intestine of a rat; assay: Degradation of penem in epithelial cells isolated from rat small intestine (free acid of penem remaining by HPLC, with/without cilastatin); assay type: in vitro ADME; settings: cilastatin 35 μg/ml; 37° C., 60 minutes
Experimental: Degradation of penems in epithelial cells isolated from the small intestine of a rat was investigated by the following method. Namely, the epithelial cells were isolated from the small intestine of the rat by the citric acid method reported in The Journal of Biological Chemistry, 248, […] (1973).
After the resultant solution was incubated at 37° C. for 60 minutes, the free acid of the penem was measured by high performance liquid chromatography (HPLC).

[2] = in vivo; parameters: species or system Sprague-Dawley male rats; settings: rat, intravenous penem; at each cilastatin dosage
Experimental: The blood was collected during the period of from 0.1 to 1.5 hours after the administration. The concentrations of the free acid of the penem in plasma samples were measured by high performance liquid chromatography (HPLC) to determine the area under the plasma concentration:time curve (AUC).

SMILES: CC1(C)C[C@@H]1C(=O)N/C(=C\CCCCSC[C@H](N)C(=O)O)C(=O)O [cilastatin, reference compound]
- Degradation of the penem carboxylate by addition of cilastatin [1]: inhibited
- Area under the plasma concentration:time curve upon intravenous administration, compared with single administration [2]: not different
